# From patent US12115178B2, “Acylated active agents and methods of their use for the treatment of autoimmune disorders” (Flagship Pioneering Innovations V, Inc., priority 2018, dated 2024)
# Columns and labels:
# Type in all cases: in vitro ADME
# [1] = Assay 2. Stability in Simulated Intestinal Fluid (SIF); conditions: SIF pH 6.7 with pancreatin, 1 μM, 37° C.
# Procedure: Assay 2. Stability of acylated active agents in Simulated Intestinal Fluid (SIF). This assay was used to assess the stability of an acylated active agent in a small intestine. Phosphate buffer was prepared by dissolving 0.42 g of sodium hydroxide pellets and 3.95 g of monobasic sodium phosphate monohydrate and 6.19 g of sodium chloride in ultrapure water (MilliQ®, Millipore Sigma, Darmstadt, Germany). The pH was adjusted to 6.7 using aq. HCl and aq. NaOH, as necessary, and the solution was diluted with ultrapure water to produce 1 L of the pH 6.7 buffer. 112 mg FaSSIF powder (Biorelevant™, London, UK) was dissolved in 50 mL of the pH 6.7 buffer. 2 to 3 mL of the resulting solution were then added to 500 mg pancreatin (Millipore Sigma, Darmstadt, Germany). The resulting mixture was agitated by finger tapping the vessel containing the mixture until milky suspension formed. At this time, the remainder of the 50 mL FaSSiF/pH 6.7 buffer solution was added. The resulting suspension was flipped upside down 10 times to produce SIF, which was used fresh. Test compounds were dissolved in DMSO stock to 1 mM. An aliquot of the DMSO stock solution was removed and diluted in the SIF media in 15 mL falcon tubes to produce a mixture with a tested compound concentration of 1 μM. A 1 mL aliquot was immediately removed and diluted once with 1 volume of acetonitrile for T0 timepoint. The mixture was sealed and agitated at 37° C. in an incubator. Aliquots (1 mL) were removed at regular intervals and immediately quenched by the addition of 1 volume of acetonitrile. The resulting samples were analyzed by LC/MS to determine degradation rates.
# [2] = Assay 3. In vitro Colonic Material Stability Assay
# Procedure: Assay 3. In vitro Colonic Material Stability Assay. This assay was used to assess the stability of an acylated active agent in a large intestine. All experiments were performed in an anaerobic chamber containing 90% nitrogen, 5% hydrogen and 5% carbon dioxide. Colonic material was resuspended as a slurry (15% w/v final concentration) in pre-reduced, anaerobically sterilized dilution blanks (Anaerobe Systems AS-908). The colonic material was then inoculated into 96 well plates containing YCFAC media (Anaerobe Systems AS-680) or other suitable media (6.7 μL slurry into 1 mL total media). Compounds or groups of compounds were added to each individual well to reach a final analyte concentration of 1 or 10 μM, and the material was mixed by pipetting. Sample was removed after set timepoints (0, 120, 240, 480, 1440, 2880 minutes after initiation of the assay), quenched with acetonitrile containing internal standard, and analyzed by LC/MS.
# [3] = Assay 1. Stability in Simulated Gastric Fluid (SGF); conditions: SGF pH 1.6 with pepsin, 1 μM, 37° C.
# Procedure: Assay 1. Stability of acylated active agents in Simulated Gastric Fluid (SGF). This assay was used to assess the stability of an acylated active agent in a stomach.
# Medium was prepared by dissolving 2 g of sodium chloride in 0.6 L in ultrapure water (MilliQ®, Millipore Sigma, Darmstadt, Germany). The pH was adjusted to 1.6 with 1N hydrochloric acid, and the volume was then adjusted to 1 L with purified water.
# 60 mg FaSSIF powder (Biorelevant™, London, UK) were dissolved in 500 mL buffer (above). Pepsin was added (0.1 mg/mL) (Millipore Sigma, Darmstadt, Germany), and the solution was stirred. The resulting SGF media were used fresh for each experiment.
# Test compounds were dissolved in DMSO stock to 1 mM. An aliquot of the DMSO stock solution was removed and diluted in the SGF Media in 15 mL falcon tubes to generate a total compound concentration of 1 μM. A 1 mL aliquot was immediately removed and diluted once with 1 volume of acetonitrile for T0 timepoint. The mixture was sealed and mixed at 37° C. in an incubator. Aliquots (1 mL) were removed at regular intervals and immediately quenched by the addition of 1 volume of acetonitrile. The resulting samples were analyzed by LC/MS to determine degradation rates in SGF.
# [4] = colonic material slurry, anaerobic, 1 or 10 μM
SMILES,Assay 2 (SIF) (% @ Remaining 4 hours) [1],"Assay 3 (% Remaining at 24 h) [2, 4]",further results
"CCC(=O)Oc1cc(OC(=O)CC)c2c(=O)c(OC(=O)CC)c(-c3ccc(OC(=O)CC)c(OC(=O)CC)c3)oc2c1 [Compound 14, [4-[4-oxo-3,5,7-tri(propanoyloxy)chromen-2-yl]-2-propanoyloxy-phenyl] propanoate]",A (<25% of the tested compound remaining),C (>75% of the tested compound remaining),
"CCCC(=O)OC[C@H]1O[C@H](OC)[C@H](OC(=O)CCC)[C@@H](OC(=O)CCC)[C@H]1OC(=O)CCC [Compound 56, [(2R,3S,4S,5R,6S)-3,4,5-tris(butanoyloxy)-6-methoxyoxan-2-yl]methyl butanoate]",A (<25% of the tested compound remaining),A (<25% of the tested compound remaining),
"CCCC(=O)Oc1cc(OC(=O)CCC)c2c(c1)O[C@H](c1cc(OC(=O)CCC)c(OC(=O)CCC)c(OC(=O)CCC)c1)[C@H](OC(=O)c1cc(OC(=O)CCC)c(OC(=O)CCC)c(OC(=O)CCC)c1)C2 [Compound 1, [(2R,3R)-5,7-di(butanoyloxy)-2-[3,4,5-tri(butanoyloxy)phenyl]chroman-3-yl] 3,4,5-tri(butanoyloxy)benzoate]",C (>75% of the tested compound remaining),B (25-75% of the tested compound remaining),
"CCC(=O)OC[C@H]1O[C@@H](OC)[C@H](OC(=O)CC)[C@@H](OC(=O)CC)[C@@H]1OC(=O)CC [Compound 59, [(2R,3R,4S,5R,6R)-6-methoxy-3,4,5-tris(propanoyloxy)oxan-2-yl]methyl propanoate]",A (<25% of the tested compound remaining),A (<25% of the tested compound remaining),
"C[C@@H]1OC(OC(=O)CCc2c[nH]c3ccccc23)[C@H](OC(=O)CCc2c[nH]c3ccccc23)[C@H](OC(=O)CCc2c[nH]c3ccccc23)[C@H]1OC(=O)CCc1c[nH]c2ccccc12 (stereo partly drawn) [Compound 147, (3R,4R,5S,6S)-3,4,5-tris({[3-(1H-indol-3-yl)propanoyl]oxy})-6-methyloxan-2-yl 3-(1H-indol-3-yl)propanoate]",,A (<25% of the tested compound remaining),
"CC(=O)Oc1cc(OC(C)=O)c2c(c1)O[C@H](c1cc(OC(C)=O)c(OC(C)=O)c(OC(C)=O)c1)[C@H](OC(=O)c1cc(OC(C)=O)c(OC(C)=O)c(OC(C)=O)c1)C2 [Compound 197, [(2R,3R)-5,7-diacetoxy-2-(3,4,5-triacetoxyphenyl)chroman-3-yl] 3,4,5-triacetoxybenzoate]",,A (<25% of the tested compound remaining),
"CCCC(=O)OC[C@H]1O[C@@H](OC)[C@H](OC(=O)CCC)[C@@H](OC(=O)CCC)[C@@H]1OC(=O)CCC [Compound 58, [(2R,3R,4S,5R,6R)-3,4,5-tris(butanoyloxy)-6-methoxyoxan-2-yl]methyl butanoate]",A (<25% of the tested compound remaining),A (<25% of the tested compound remaining),
"CC(=O)O[C@@H]1[C@H](OC(C)=O)C=C(C(=O)O)C[C@H]1OC(C)=O [Compound 215, (3R,4S,5R)-3,4,5-triacetoxycyclohex-1-ene-1-carboxylic acid]",,B (25-75% of the tested compound remaining),
"CCCC(=O)Oc1ccc2c(c1)oc(=O)c1cc(OC(=O)CCC)c(OC(=O)CCC)cc12 [Compound 210, 8,9-bis(butanoyloxy)-6-oxo-6H-benzo[c]chromen-3-yl butanoate]",,A (<25% of the tested compound remaining),
"CCC(=O)O[C@@H]1[C@H](OC(=O)CC)C=C(C(=O)O)C[C@H]1OC(=O)CC [Compound 217, (3R,4S,5R)-3,4,5-tris(propanoyloxy)cyclohex-1-ene-1-carboxylic acid]",,B (25-75% of the tested compound remaining),
"CCCC(=O)Oc1cc(OC(=O)CCC)c2c(c1)O[C@H](c1cc(OC(=O)CCC)c(OC(=O)CCC)c(OC(=O)CCC)c1)[C@H](OC(=O)c1cc(OC(=O)CCC)c(OC(=O)CCC)c(OC(=O)CCC)c1)C2 [Compound 198, [(2R,3R)-5,7-di(butanoyloxy)-2-[3,4,5-tri(butanoyloxy)phenyl]chroman-3-yl] 3,4,5-tri(butanoyloxy)benzoate]",,,"Assay 3 (% Remaining at 24 h) ([2]; Run 1, colonic material): C (>75% of the tested compound remaining); Assay 3 (% Remaining at 24 h) ([2]; Run 2, colonic material): C (>75% of the tested compound remaining); Assay 3 (% Remaining at 24 h) ([2]; Run 3, colonic material): B (25-75% of the tested compound remaining)"
"[2H]C([2H])([2H])C([2H])([2H])CC(=O)O[C@@H]1[C@@H](OC(=O)CC([2H])([2H])C([2H])([2H])[2H])[C@H](Oc2ccc(N)cc2C(=O)O)OC[C@H]1OC(=O)CC([2H])([2H])C([2H])([2H])[2H] [Compound 189, 5-amino-2-{[(2S,3R,4S,5R)-3,4,5-tris[(3,3,4,4,4-^2H5)butanoyloxy]oxan-2-yl]oxy}benzoic acid]",,B (25-75% of the tested compound remaining),
"[2H]C([2H])([2H])C([2H])([2H])CC(=O)O[C@@H]1[C@@H](OC(=O)CC([2H])([2H])C([2H])([2H])[2H])[C@H](Oc2ccc(N)cc2C(=O)O)OC[C@H]1O [Compound 192, 5-amino-2-{[(2S,3R,4S,5R)-3,4-bis[(3,3,4,4,4-^2H5)butanoyloxy]-5-hydroxyoxan-2-yl]oxy}benzoic acid]",,B (25-75% of the tested compound remaining),
"CCCC(=O)O[C@@H]1[C@H](OC(=O)CCC)C=C(C(=O)O)C[C@H]1OC(=O)CCC [Compound 218, (3R,4S,5R)-3,4,5-tris(butanoyloxy)cyclohex-1-ene-1-carboxylic acid]",,B (25-75% of the tested compound remaining),
"CCCC(=O)O[C@@H]1[C@@H](OC(=O)CCC)[C@@H](Oc2ccccc2C(=O)O)OC[C@@H]1OC(=O)CCC [Compound 31, 2-(((2R,3R,4S,5S)-3,4,5-tris(butyryloxy)tetrahydro-2H-pyran-2-yl)oxy)benzoic acid]",A (<25% of the tested compound remaining),,Assay 1 (SGF) (% Remaining @ 1 hour) [3]: C (>75% of the tested compound remaining)
"CCC(=O)O[C@H]1[C@H](OC(=O)CC)[C@H](OC(=O)Cc2c[nH]c3ccccc23)O[C@@H](C)[C@H]1OC(=O)CC [Compound 118, (2S,3S,4R,5R,6S)-2-{[2-(1H-indol-3-yl)acetyl]oxy}-6-methyl-4,5-bis(propanoyloxy)oxan-3-yl propanoate]",A (<25% of the tested compound remaining),,Assay 1 (SGF) (% Remaining @ 1 hour) [3]: C (>75% of the tested compound remaining)
"CCCC(=O)Oc1ccc(C2CC(=O)c3c(OC(=O)CCC)cc(OC(=O)CCC)cc3O2)cc1 (stereo not shown) [Compound 10, [4-[5,7-di(butanoyloxy)-4-oxo-chroman-2-yl]phenyl] butanoate]",A (<25% of the tested compound remaining),,Assay 1 (SGF) (% Remaining @ 1 hour) [3]: B (25-75% of the tested compound remaining)
"O=C(CCc1c[nH]c2ccccc12)Oc1cc(C(=O)O)cc(OC(=O)CCc2c[nH]c3ccccc23)c1OC(=O)CCc1c[nH]c2ccccc12 [Compound 202, 3,4,5-tris({[3-(1H-indol-3-yl)propanoyl]oxy})benzoic acid]",C (>75% of the tested compound remaining),,Assay 1 (SGF) (% Remaining @ 1 hour) [3]: A (<25% of the tested compound remaining)
"CCC(=O)O[C@@H]1[C@@H](OC(=O)CC)[C@@H](OC(=O)CC)CO[C@H]1O [Compound 127, (3S,4S,5R,6R)-6-hydroxy-4,5-bis(propanoyloxy)oxan-3-yl propanoate]",B (25-75% of the tested compound remaining),,Assay 1 (SGF) (% Remaining @ 1 hour) [3]: C (>75% of the tested compound remaining)
